The target in series [1] is AChE from electric eel (EeAChE) (Electrophorus electricus, UniProt O42275). Briefly: biochemical. In kind it is biochemical.
Series [2] has as its target BuChE from equine serum (EqBuChE) (Equus caballus, UniProt P81908). The series can be described thus: biochemical.
The subject of the next series is HepG2 cells. The conditions noted are these: range of tested concentrations up to 500 µM.
The subject of series [3] is Staphylococcus aureus ATCC 29213. The series can be described thus: Antibacterial microdilution broth method (EUCAST). In kind it is cell-based. (In general: Dilution methods test growth across graded concentrations, often in twofold steps.)
Series [4] has as its system methicillin-resistant Staphylococcus aureus ATCC 43300. Briefly: Antibacterial microdilution broth method (EUCAST). In kind it is cell-based. The conditions noted are these: ATCC 43300 / MRSA.
Series [5] has as its system Staphylococcus epidermidis ATCC 12228. The series can be described thus: Antibacterial microdilution broth method (EUCAST). In kind it is cell-based.
Series [6] has as its system Enterococcus faecalis ATCC 29212. Briefly: Antibacterial microdilution broth method (EUCAST). The series is classed as cell-based.
Series [7] relates to Escherichia coli ATCC 25922. Briefly: Antibacterial microdilution broth method (EUCAST). The series is classed as cell-based.
For series [8], the system named is Acinetobacter baumannii ATCC 19606. The series can be described thus: Antibacterial microdilution broth method (EUCAST). In kind it is cell-based.
The subject of series [9] is Pseudomonas aeruginosa ATCC 27853. The series can be described thus: Antibacterial microdilution broth method (EUCAST). In kind it is cell-based.
In series [10] the test system is eight human pathogenic fungi. Briefly: Antifungal microdilution broth method, whole panel. In kind it is cell-based. The conditions noted are these: not reported in Table 2, read-out: MIC, all fungal strains tested.
Series [11] deals with Klebsiella pneumoniae ATCC 10031. The conditions noted are these: for MIC KP 24 h: 24 h incubation; for MIC KP 48 h: 48 h incubation.
Series [12] concerns Candida albicans ATCC 24443. Briefly: microbe, parasite or virus in culture. The series is classed as cell-based.
In another series the test system is Candida krusei ATCC 6258. Briefly: microbe, parasite or virus in culture. The series is classed as cell-based. The conditions noted are these: Pichia kudriavzevii.
Series [13] deals with Candida parapsilosis ATCC 22019. Briefly: microbe, parasite or virus in culture. The series is classed as cell-based. The conditions noted are these: Lodderomyces parapsilosis.
Series [14] concerns Candida tropicalis ATCC 750. Briefly: microbe, parasite or virus in culture. The series is classed as cell-based.
The subject of series [15] is Trichophyton interdigitale ATCC 9533. Briefly: microbe, parasite or virus in culture. In kind it is cell-based.
The mark [16] stands for this setting: mean ± SD, n = three independent experiments, BTCh 40 µM, read-out: IC50 BuChE.
[17] abbreviates: ATCC29213, 24 h, read-out: MIC SA 24 h.
Setting [18] is: ATCC29213, 48 h, read-out: MIC SA 48 h.
Where [19] appears, read: ATCC12228, 24 h, read-out: MIC SE 24 h.
Setting [20] is: ATCC12228, 48 h, read-out: MIC SE 48 h.
The mark [21] stands for this setting: ATCC29212, 24 h, read-out: MIC EF 24 h.
Setting [22] is: ATCC29212, 48 h, read-out: MIC EF 48 h.
[23] abbreviates: ATCC25922, 24 h, read-out: MIC EC 24 h.
The mark [24] stands for this setting: ATCC25922, 48 h, read-out: MIC EC 48 h.
Where [25] appears, read: ATCC19606, 24 h, read-out: MIC ACI 24 h.
[26] abbreviates: ATCC19606, 48 h, read-out: MIC ACI 48 h.
Where [27] appears, read: ATCC27853, 24 h, read-out: MIC PA 24 h.
[28] abbreviates: ATCC27853, 48 h, read-out: MIC PA 48 h.
Where [29] appears, read: ATCC24443, 24 h, read-out: MIC CA 24 h.
The mark [30] stands for this setting: ATCC24443, 48 h, read-out: MIC CA 48 h.
Where [31] appears, read: ATCC6258, 24 h, read-out: MIC CK 24 h.
Setting [32] is: ATCC6258, 48 h, read-out: MIC CK 48 h.
The mark [33] stands for this setting: ATCC22019, 24 h, read-out: MIC CP 24 h.
Setting [34] is: ATCC22019, 48 h, read-out: MIC CP 48 h.
The mark [35] stands for this setting: ATCC750, 24 h, read-out: MIC CT 24 h.
Where [36] appears, read: ATCC750, 48 h, read-out: MIC CT 48 h.
Setting [37] is: ATCC9533, 72 h, read-out: MIC TI 72 h.
Where [38] appears, read: ATCC9533, 120 h, read-out: MIC TI 120 h.
Where [39] appears, read: mean ± SD, n = three independent experiments, ATCh 40 µM, read-out: IC50 AChE.

Values after ≈ are worked out from the molar mass of the structure shown. Values joined by “and” are separate entries in the source; they are usually repeats but may differ in a detail not shown here. Identical values can stand only once. Like-named read-outs stand apart in the source and are kept apart here.

BuChE from equine serum (EqBuChE), sequence (P81908 whole entry): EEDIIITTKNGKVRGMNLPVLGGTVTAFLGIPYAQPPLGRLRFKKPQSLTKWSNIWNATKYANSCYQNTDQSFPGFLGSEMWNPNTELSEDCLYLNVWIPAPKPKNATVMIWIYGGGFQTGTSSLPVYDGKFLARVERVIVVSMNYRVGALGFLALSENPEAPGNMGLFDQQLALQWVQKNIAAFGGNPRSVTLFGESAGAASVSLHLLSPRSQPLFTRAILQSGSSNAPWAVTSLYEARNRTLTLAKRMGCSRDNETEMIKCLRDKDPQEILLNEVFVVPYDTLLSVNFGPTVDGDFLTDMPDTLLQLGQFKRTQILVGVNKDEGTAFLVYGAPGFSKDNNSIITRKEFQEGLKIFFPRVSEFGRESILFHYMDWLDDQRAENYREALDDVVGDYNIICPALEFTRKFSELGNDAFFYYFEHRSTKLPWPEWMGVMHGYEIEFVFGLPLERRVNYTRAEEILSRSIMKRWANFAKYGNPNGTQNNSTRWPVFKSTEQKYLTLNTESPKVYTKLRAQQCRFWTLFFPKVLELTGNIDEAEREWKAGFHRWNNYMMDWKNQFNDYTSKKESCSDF
AChE from electric eel (EeAChE), sequence (O42275 24-633): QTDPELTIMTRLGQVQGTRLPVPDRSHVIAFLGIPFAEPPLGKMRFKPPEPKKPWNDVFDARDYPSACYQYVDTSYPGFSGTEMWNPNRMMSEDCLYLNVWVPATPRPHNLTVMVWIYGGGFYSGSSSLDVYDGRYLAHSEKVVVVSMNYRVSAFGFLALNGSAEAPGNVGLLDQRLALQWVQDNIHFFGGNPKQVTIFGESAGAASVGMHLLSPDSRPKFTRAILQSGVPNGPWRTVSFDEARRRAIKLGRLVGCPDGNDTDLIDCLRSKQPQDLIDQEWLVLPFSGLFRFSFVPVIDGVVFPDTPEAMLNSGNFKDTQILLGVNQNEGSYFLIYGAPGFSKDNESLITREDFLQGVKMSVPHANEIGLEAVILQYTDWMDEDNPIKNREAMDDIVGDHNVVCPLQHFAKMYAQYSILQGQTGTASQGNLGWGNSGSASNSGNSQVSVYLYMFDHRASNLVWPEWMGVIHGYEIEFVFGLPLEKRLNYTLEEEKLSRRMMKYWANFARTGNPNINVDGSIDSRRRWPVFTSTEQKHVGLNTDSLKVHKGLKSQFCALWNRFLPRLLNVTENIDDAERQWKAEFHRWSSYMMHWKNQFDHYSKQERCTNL
Description for HepG2 cells: Cytotoxicity of the tested compounds was measured using the standard hepatic cell line HepG2. The used CellTiter 96® assay is based on the reduction of tetrazolium dye (MTS) in living cells to formazan, which is then determined colorimetrically.

As a reminder, the IC50 is the midpoint of a concentration-inhibition curve. Turning to `N=C(NN)NN` [1,3-diaminoguanidine, reference compound], the IC50 in series [1] turned out to be 41.71 ± 0.23 µM; in series [2] (setting [16]) it was 283 ± 8.94 µM. Moreover, in [1], the “Selectivity AChE/BuChE” value amounted to 0.15. Also, the “Cytotoxicity in HepG2 in words” value with HepG2 cells was “no significant cytotoxicity”.
Turning to `[H]/N=C(\N)NN=Cc1ccccc1` [Compound 1a, (E)-2-Benzylidenehydrazine-1-carboximidamide], the MIC was 500 µM (≈ 81.1 µg/mL) in series [3] (setting [17]); 500 µM (≈ 81.1 µg/mL) in series [3] (setting [18]); greater than 500 µM in series [4] (24 h, read-out: MIC MRSA 24 h); greater than 500 µM in series [4] (48 h, read-out: MIC MRSA 48 h); 250 µM (≈ 40.5 µg/mL) in series [5] (setting [19]); 250 µM (≈ 40.5 µg/mL) in [5] (setting [20]). The MIC in series [6] (setting [21]), in [6] (setting [22]), in series [7] (setting [23]), in series [7] (setting [24]), in [8] (setting [25]) and in series [8] (setting [26]) was greater than 500 µM in each case. Besides, the MIC in series [9] (setting [27]) is greater than 500 µM; in series [9] (setting [28]), greater than 500 µM; in series [10], no less than 500 µM. Besides, the IC50 in [1] was 36.19 ± 0.1 µM; in series [2] (IC50 BuChE) it was 44.9 ± 0.54 µM. Besides, the “Selectivity AChE/BuChE” value in series [1] was 0.81. For the same compound, in series [11], the “MIC KP 24 h” value is on record as greater than 500 µM. In addition, the “MIC KP 48 h” value in series [11] is listed as greater than 500 µM.
As for `[H]/N=C(\N)NN=Cc1cc(I)ccc1O` [Compound 1i, (E)-2-(2-Hydroxy-5-iodobenzylidene)hydrazine-1-carboximidamide], the MIC in [3] (setting [17]) amounted to 125 µM (≈ 38 µg/mL); in series [3] (setting [18]), 125 µM (≈ 38 µg/mL); in [4] (24 h, read-out: MIC MRSA 24 h), 125 µM (≈ 38 µg/mL); in [4] (48 h, read-out: MIC MRSA 48 h), 125 µM (≈ 38 µg/mL); in series [5] (setting [19]), 250 µM (≈ 76 µg/mL); in series [5] (setting [20]), 250 µM (≈ 76 µg/mL). Besides, the MIC in series [6] (setting [21]) came out at 500 µM (≈ 152 µg/mL); in [6] (setting [22]) it was 500 µM (≈ 152 µg/mL); in [7] (setting [23]), 250 µM (≈ 76 µg/mL); in series [7] (setting [24]), 250 µM (≈ 76 µg/mL); in series [8] (setting [25]) it was 500 µM (≈ 152 µg/mL); in [8] (setting [26]), 500 µM (≈ 152 µg/mL). Moreover, the MIC was 500 µM (≈ 152 µg/mL) in [9] (setting [27]); 500 µM (≈ 152 µg/mL) in [9] (setting [28]); 500 µM (≈ 152 µg/mL) in series [12] (setting [29]); 500 µM (≈ 152 µg/mL) in [12] (setting [30]); 250 µM (≈ 76 µg/mL) with Candida krusei ATCC 6258 (setting [31]); 250 µM (≈ 76 µg/mL) in the series with Candida krusei ATCC 6258 (setting [32]). In addition, the MIC was 250 µM (≈ 76 µg/mL) in series [13] (setting [33]); 250 µM (≈ 76 µg/mL) in series [13] (setting [34]); 500 µM (≈ 152 µg/mL) in series [14] (setting [35]); 500 µM (≈ 152 µg/mL) in series [14] (setting [36]); 62.5 µM (≈ 19 µg/mL) in [15] (setting [37]); 125 µM (≈ 38 µg/mL) in series [15] (setting [38]). Also, the “Selectivity AChE/BuChE” value in series [1] is 1.27. For the same compound, the IC50 in [1] (setting [39]) is 25 ± 0.5 µM; in series [2] (setting [16]), < 20 µM and 19.8 µM. Moreover, the “MIC KP 24 h” value in series [11] came out at 250 µM (≈ 76 µg/mL). In addition, the “MIC KP 48 h” value in series [11] is recorded as 250 µM (≈ 76 µg/mL).
Take `[H]/N=C(\N)NN=Cc1cc(Cl)cc(Br)c1O` [Compound 1k, (E)-2-(3-Bromo-5-chloro-2-hydroxybenzylidene)hydrazine-1-carboximidamide]: the MIC in series [3] (setting [17]) was 250 µM (≈ 72.9 µg/mL); in [3] (setting [18]) it was 250 µM (≈ 72.9 µg/mL); in series [4] (24 h, read-out: MIC MRSA 24 h), 250 µM (≈ 72.9 µg/mL); in series [4] (48 h, read-out: MIC MRSA 48 h) it was 250 µM (≈ 72.9 µg/mL); in series [5] (setting [19]), 125 µM (≈ 36.4 µg/mL); in series [5] (setting [20]) it was 250 µM (≈ 72.9 µg/mL). In addition, the MIC in series [6] (setting [21]) is 500 µM (≈ 146 µg/mL); in series [6] (setting [22]), 500 µM (≈ 146 µg/mL); in series [7] (setting [23]), 500 µM (≈ 146 µg/mL); in [7] (setting [24]), 500 µM (≈ 146 µg/mL); in series [8] (setting [25]), greater than 500 µM; in series [8] (setting [26]), greater than 500 µM. In addition, the MIC is greater than 500 µM in [9] (setting [27]); greater than 500 µM in series [9] (setting [28]); 250 µM (≈ 72.9 µg/mL) in series [12] (setting [29]); 500 µM (≈ 146 µg/mL) in [12] (setting [30]); 500 µM (≈ 146 µg/mL) with Candida krusei ATCC 6258 (setting [31]); 500 µM (≈ 146 µg/mL) with Candida krusei ATCC 6258 (setting [32]). In addition, the MIC in series [13] (setting [33]) amounted to 500 µM (≈ 146 µg/mL); in series [13] (setting [34]), 500 µM (≈ 146 µg/mL); in series [14] (setting [35]) it was 500 µM (≈ 146 µg/mL); in series [14] (setting [36]) it was 500 µM (≈ 146 µg/mL); in [15] (setting [37]), 125 µM (≈ 36.4 µg/mL); in series [15] (setting [38]), 250 µM (≈ 72.9 µg/mL). Besides, in series [1], the “Selectivity AChE/BuChE” value turned out to be 1.92. Besides, the 50% inhibitory concentration (IC50) in [1] (setting [39]) is 22.4 ± 0.67 µM; in [2] (setting [16]), < 20 µM and 11.7 µM. Further, the “MIC KP 24 h” value in [11] is on record as 250 µM (≈ 72.9 µg/mL). Further, the “MIC KP 48 h” value in series [11] stood at 250 µM (≈ 72.9 µg/mL).

(Values after PMC8704707 (Pharmaceuticals, 2021).)
